The conditions of this series: 298.15 K, 101.3 kPa, Liquid; for viscosity: Capillary tube (Ostwald / Ubbelohde) method; for speed of sound: Pulse-echo method; for mass density: Vibrating tube method.

± gives the expanded uncertainty stated by the source.

Turning to `CCCCCCO` [hexan-1-ol], the viscosity is reported as 4.439 ± 0.033 mPa·s, the speed of sound was determined as 1303.2 ± 1.2 m/s and the mass density is given as 815.265 ± 0.23 kg/m3.

In the case of `CCCCCCCCCCO` [decan-1-ol], the viscosity came to 11.19 ± 0.077 mPa·s, the speed of sound is 1379.9 ± 1.2 m/s and the mass density is given as 826.47 ± 0.23 kg/m3.

With `COCCO` [2-methoxyethan-1-ol], the viscosity is 1.512 ± 0.013 mPa·s, the speed of sound is recorded as 1343.5 ± 1.2 m/s and the mass density came to 960.978 ± 0.23 kg/m3.

Regarding `CCCCCCCCO` [octan-1-ol], the viscosity amounted to 7.143 ± 0.051 mPa·s, the speed of sound worked out at 1347.6 ± 1.2 m/s and the mass density turned out to be 821.794 ± 0.23 kg/m3.

These data come from the NIST ThermoML archive (doi:10.1021/je9005344).
